Where only a bound is given, the exact number is not on record here.

Ba/F3 V617F cells, sequence (O60674 whole entry V617F): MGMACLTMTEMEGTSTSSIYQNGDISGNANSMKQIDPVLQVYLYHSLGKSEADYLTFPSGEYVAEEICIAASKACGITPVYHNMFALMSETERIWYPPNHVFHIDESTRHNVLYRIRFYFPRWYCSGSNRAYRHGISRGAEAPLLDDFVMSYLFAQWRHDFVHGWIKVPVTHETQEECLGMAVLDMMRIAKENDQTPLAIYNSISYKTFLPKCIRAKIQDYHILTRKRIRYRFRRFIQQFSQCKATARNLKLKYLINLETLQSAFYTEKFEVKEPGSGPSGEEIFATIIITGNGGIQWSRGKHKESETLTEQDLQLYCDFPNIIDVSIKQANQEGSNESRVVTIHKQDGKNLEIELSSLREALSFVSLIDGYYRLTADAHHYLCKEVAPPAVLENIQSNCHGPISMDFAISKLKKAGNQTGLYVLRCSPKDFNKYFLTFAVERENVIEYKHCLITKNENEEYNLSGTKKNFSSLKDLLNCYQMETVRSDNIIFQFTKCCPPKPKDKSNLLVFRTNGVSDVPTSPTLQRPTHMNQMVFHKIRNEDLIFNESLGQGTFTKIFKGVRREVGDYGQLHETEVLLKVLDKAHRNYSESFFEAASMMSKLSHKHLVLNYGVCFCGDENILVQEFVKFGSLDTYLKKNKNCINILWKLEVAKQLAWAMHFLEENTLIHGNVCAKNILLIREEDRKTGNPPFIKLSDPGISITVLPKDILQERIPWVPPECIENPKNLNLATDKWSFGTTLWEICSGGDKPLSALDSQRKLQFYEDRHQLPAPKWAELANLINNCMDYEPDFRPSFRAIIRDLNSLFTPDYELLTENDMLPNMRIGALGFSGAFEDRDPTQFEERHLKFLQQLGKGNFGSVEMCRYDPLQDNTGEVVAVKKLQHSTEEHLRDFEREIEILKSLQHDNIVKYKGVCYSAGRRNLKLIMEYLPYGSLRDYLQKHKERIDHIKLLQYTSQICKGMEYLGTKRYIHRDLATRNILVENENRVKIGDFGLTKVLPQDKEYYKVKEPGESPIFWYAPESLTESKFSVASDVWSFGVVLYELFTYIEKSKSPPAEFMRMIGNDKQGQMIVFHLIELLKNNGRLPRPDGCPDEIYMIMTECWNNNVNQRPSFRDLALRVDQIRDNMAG

One assay addresses Ba/F3 V617F cells (Homo sapiens, UniProt O60674, V617F, cells depend on it). Description: Proliferation assay (Cell Titer-Glo, 72 h) utilizing Ba/F3 V617F cells. To be noted: Ba/F3 V617F cells, proliferation, level of activity given as class symbol, read-out: IC50 (the source's name). The format is cell-based, mouse. The essentials:
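Readout is CellTiter-Glo luminescence after 72 h at 37 °C, giving IC50. Cells: Ba/F3 V617F, 1×10^5 cells/mL in RPMI with 10% FBS, treated in duplicate with 3-fold dilution series made from 5 mM DMSO stock, 1:250 in 5% FBS medium, added at 2×.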
`Cc1cc(Nc2nccc(-c3ccc(N4C[C@@H](C)O[C@@H](C)C4)nc3)n2)ccc1N1C[C@@H]2C[C@H]1CN2C` [compound 187, 4-(6-(cis-2,6-dimethylmorpholin-4-yl)pyridin-3-yl)-N-(3-methyl-4-((1S,4S)-5-methyl-2,5-diazabicyclo[2.2.1]heptan-2-yl)phenyl)pyrimidin-2-amine]: the GI50 is below 1000 nM.
On the same count and under the same terms, as for `CCCNc1ccc(-c2ccnc(Nc3ccc(N4C[C@@H]5C[C@H]4CN5C)c(C)c3)n2)cn1` [compound 188, 4-(6-(propylamino)pyridin-3-yl)-N-(3-methyl-4-((1S,4S)-5-methyl-2,5-diazabicyclo[2.2.1]heptan-2-yl)phenyl)pyrimidin-2-amine], the figure is below 1000 nM; as for `Cc1cc(Nc2nccc(-c3ccc(N4CCOC(CN(C)C)C4)nc3)n2)ccc1N1C[C@@H]2C[C@H]1CN2C` (stereo partly drawn) [compound 189, 4-(6-(2-(dimethylamino)methylmorpholin-4-yl)pyridin-3-yl)-N-(3-methyl-4-((1S,4S)-5-methyl-2,5-diazabicyclo[2.2.1]heptan-2-yl)phenyl)pyrimidin-2-amine], below 1000 nM; as for `Cc1cc(Nc2nccc(-c3ccc(N4CCCCC4)nc3)n2)ccc1N1C[C@@H]2C[C@H]1CN2C` [compound 190, 4-(6-(piperidin-1-yl)pyridin-3-yl)-N-(3-methyl-4-((1S,4S)-5-methyl-2,5-diazabicyclo[2.2.1]heptan-2-yl)phenyl)pyrimidin-2-amine], below 1000 nM.
Same read-out and setting: then `Cc1cc(Nc2nccc(-c3ccc(N4CCCC(C(N)=O)C4)nc3)n2)ccc1N1C[C@@H]2C[C@H]1CN2C` (stereo partly drawn) [compound 191, 4-(6-(3-(aminocarbonyl)piperidin-1-yl)pyridin-3-yl)-N-(3-methyl-4-((1S,4S)-5-methyl-2,5-diazabicyclo[2.2.1]heptan-2-yl)phenyl)pyrimidin-2-amine], with 1000 to 10000 nM; and `Cc1cc(Nc2nccc(-c3ccc(N4CCOCC4)nc3)n2)ccc1N1C[C@@H]2C[C@H]1CN2S(C)(=O)=O` [compound 192, 4-(6-(morpholin-4-yl)pyridin-3-yl)-N-(3-methyl-4-((1S,4S)-5-methylsulfonyl-2,5-diazabicyclo[2.2.1]heptan-2-yl)phenyl)pyrimidin-2-amine], with below 1000 nM.
The same measure, in the same setting: as for `Cc1cc(Nc2nccc(-c3cnc4c(c3)OCCN4C)n2)ccc1N1C[C@@H]2C[C@H]1CN2S(C)(=O)=O` [compound 193, 4-(4-methyl-3,4-dihydro-2H-pyrido[3,2-b][1,4]oxazin-7-yl)-N-(3-methyl-4-((1S,4S)-5-methylsulfonyl-2,5-diazabicyclo[2.2.1]heptan-2-yl)phenyl)pyrimidin-2-amine], the figure is below 1000 nM.
As for `Cc1cc(Nc2nccc(-c3ccc(N4CCOCC4)nc3)n2)ccc1N1C[C@@H]2C[C@H]1CO2` [compound 194, 4-(6-(morpholin-4-yl)pyridin-3-yl)-N-(3-methyl-4-((1S,4S)-5-oxa-2-azabicyclo[2.2.1]heptan-2-yl)phenyl)pyrimidin-2-amine], the GI50 is below 1000 nM.
Same read-out and setting: then `Cc1cc(Nc2nccc(-c3cnc4c(c3)OCCN4C)n2)ccc1N1C[C@@H]2C[C@H]1CO2` [compound 195, 4-(4-methyl-3,4-dihydro-2H-pyrido[3,2-b][1,4]oxazin-7-yl)-N-(3-methyl-4-((1S,4S)-5-oxa-2-azabicyclo[2.2.1]heptan-2-yl)phenyl)pyrimidin-2-amine], with below 1000 nM; and `CCC(=O)N1C[C@@H]2C[C@H]1CN2c1ccc(Nc2nccc(-c3ccc(N4CCOCC4)nc3)n2)cc1C` [compound 196, 4-(6-(morpholin-4-yl)pyridin-3-yl)-N-(3-methyl-4-((1S,4S)-5-ethylcarbonyl-2,5-diazabicyclo[2.2.1]heptan-2-yl)phenyl)pyrimidin-2-amine], with below 1000 nM; and `CCC(=O)N1C[C@@H]2C[C@H]1CN2c1ccc(Nc2nccc(-c3ccc(NCCN4CCOCC4)nc3)n2)cc1C` [compound 197, 4-(6-(2-(morpholin-4-yl)ethyl)aminopyridin-3-yl)-N-(3-methyl-4-((1S,4S)-5-ethylcarbonyl-2,5-diazabicyclo[2.2.1]heptan-2-yl)phenyl)pyrimidin-2-amine], with 1000 to 10000 nM.
For the compound `Cc1cc(Nc2nccc(-c3ccc(NCCCN(C)C)nc3)n2)ccc1N1C[C@@H]2C[C@H]1CN2C` [compound 198, 4-(6-(3-dimethylamino)propylaminopyridin-3-yl)-N-(3-methyl-4-((1S,4S)-5-methyl-2,5-diazabicyclo[2.2.1]heptan-2-yl)phenyl)pyrimidin-2-amine], the GI50 was 1000 to 10000 nM.
Still for that read-out and setting: as for `Cc1cc(Nc2nccc(-c3ccc(N4CCOCC4)nc3)n2)ccc1N1C[C@@H]2C[C@H]1CN2C(=N)N` [compound 199, 4-(6-(morpholin-4-yl)pyridin-3-yl)-N-(3-methyl-4-((1S,4S)-5-amidino-2,5-diazabicyclo[2.2.1]heptan-2-yl)phenyl)pyrimidin-2-amine], the figure is 1000 to 10000 nM; as for `CCOCCCNc1ccc(-c2ccnc(Nc3ccc(N4C[C@@H]5C[C@H]4CO5)c(C)c3)n2)cn1` [compound 200, 4-(6-(3-ethoxypropyl)aminopyridin-3-yl)-N-(3-methyl-4-((1S,4S)-5-oxa-2-azabicyclo[2.2.1]heptan-2-yl)phenyl)pyrimidin-2-amine], below 1000 nM; as for `CCCNc1ccc(-c2ccnc(Nc3ccc(N4C[C@@H]5C[C@H]4CO5)c(C)c3)n2)cn1` [compound 202, 4-(6-(propylamino)pyridin-3-yl)-N-(3-methyl-4-((1S,4S)-5-oxa-2-azabicyclo[2.2.1]heptan-2-yl)phenyl)pyrimidin-2-amine], below 1000 nM.
Consider `Cc1cc(Nc2nccc(-c3ccc(NCCCN(C)C)nc3)n2)ccc1N1C[C@@H]2C[C@H]1CO2` [compound 203, 4-(6-(3-dimethylamino)propylaminopyridin-3-yl)-N-(3-methyl-4-((1S,4S)-5-oxa-2-azabicyclo[2.2.1]heptan-2-yl)phenyl)pyrimidin-2-amine], for which the GI50 was below 1000 nM.
For `Cc1cc(Nc2nccc(-c3ccc(N4CCCOCC4)nc3)n2)ccc1N1C[C@@H]2C[C@H]1CO2` [compound 204, 4-(6-(1,4-oxazepan-4-yl)pyridin-3-yl)-N-(3-methyl-4-((1S,4S)-5-oxa-2-azabicyclo[2.2.1]heptan-2-yl)phenyl)pyrimidin-2-amine], the GI50 was below 1000 nM.
Still for that read-out and setting: as for `Cc1cc(Nc2nccc(-c3ccc(N4CCOCC4)nc3)n2)ccc1N1C[C@@H]2C[C@H]1CN2CC(C)C` [compound 205, 4-(6-(morpholin-4-yl)pyridin-3-yl)-N-(3-methyl-4-((1S,4S)-5-isobutyl-2,5-diazabicyclo[2.2.1]heptan-2-yl)phenyl)pyrimidin-2-amine], the figure is below 1000 nM.

Staying with this assay, now noted: Ba/F3 V617F cells, proliferation, level of activity to inhibit JAK2, read-out: IC50 (the source's name).
Take `Cc1cc(Nc2nccc(-c3cnc(N4CCOCC4)cn3)n2)ccc1N1C[C@@H]2C[C@H]1CN2C` [compound 178, 4-(5-(morpholin-4-yl)pyrazin-2-yl)-N-(3-methyl-4-((1S,4S)-5-methyl-2,5-diazabicyclo[2.2.1]heptan-2-yl)phenyl)pyrimidin-2-amine]: the GI50 lay within 1000 to 10000 nM.
On the same count and under the same terms, then `CN1C[C@@H]2C[C@H]1CN2c1ccc(Nc2nccc(-c3cnc(N4CCOCC4)cn3)n2)cc1F` [compound 179, 4-(5-(morpholin-4-yl)pyrazin-2-yl)-N-(3-fluoro-4-((1S,4S)-5-methyl-2,5-diazabicyclo[2.2.1]heptan-2-yl)phenyl)pyrimidin-2-amine], with 1000 to 10000 nM; and `CCOC(C)c1ccc(-c2ccnc(Nc3ccc(N4C[C@@H]5C[C@H]4CN5C)c(C)c3)n2)cc1` (stereo partly drawn) [compound 181, 4-(4-(1-ethoxyethyl)phenyl)-N-(3-methyl-4-((1S,4S)-5-methyl-2,5-diazabicyclo[2.2.1]heptan-2-yl)phenyl)pyrimidin-2-amine], with 1000 to 10000 nM; and `CCOC(C)c1ccc(-c2ccnc(Nc3ccc(N4C[C@@H]5C[C@H]4CN5C)c(F)c3)n2)cc1` (stereo partly drawn) [compound 182, 4-(4-(1-ethoxyethyl)phenyl)-N-(3-fluoro-4-((1S,4S)-5-methyl-2,5-diazabicyclo[2.2.1]heptan-2-yl)phenyl)pyrimidin-2-amine], with 1000 to 10000 nM.
Still for that read-out and setting: then `CN(C)c1ccc(-c2ccnc(Nc3ccc(N4C[C@@H]5C[C@H]4CN5C)cc3)n2)cn1` [compound 183, 4-(6-(dimethylamino)pyridin-3-yl)-N-(4-((1S,4S)-5-methyl-2,5-diazabicyclo[2.2.1]heptan-2-yl)phenyl)pyrimidin-2-amine], with below 1000 nM; and `CN1C[C@@H]2C[C@H]1CN2c1ccc(Nc2nccc(-c3ccc(N4CCOCC4)nc3)n2)cc1` [compound 184, 4-(6-(morpholin-4-yl)pyridin-3-yl)-N-(4-((1S,4S)-5-methyl-2,5-diazabicyclo[2.2.1]heptan-2-yl)phenyl)pyrimidin-2-amine], with below 1000 nM.
On the same count and under the same terms, then `CN1CCOc2cc(-c3ccnc(Nc4ccc(N5C[C@@H]6C[C@H]5CN6C)cc4)n3)cnc21` [compound 185, 4-(4-methyl-3,4-dihydro-2H-pyrido[3,2-b][1,4]oxazin-7-yl)-N-(4-((1S,4S)-5-methyl-2,5-diazabicyclo[2.2.1]heptan-2-yl)phenyl)pyrimidin-2-amine], with below 1000 nM; and `CCOCCCNc1ccc(-c2ccnc(Nc3ccc(N4C[C@@H]5C[C@H]4CN5C)c(C)c3)n2)cn1` [compound 186, 4-(6-(3-ethoxypropyl)aminopyridin-3-yl)-N-(3-methyl-4-((1S,4S)-5-methyl-2,5-diazabicyclo[2.2.1]heptan-2-yl)phenyl)pyrimidin-2-amine], with below 1000 nM.

The same assay, now with this note: inhibition of JAK2 activity, proliferation of Ba/F3 V617F cells, read-out: IC50 (the source's name).
On to `CN1C[C@@H]2C[C@H]1CN2c1ccc(Nc2nccc(-c3cnc(N4CCOCC4)cn3)n2)cn1` [compound 180, 4-(5-(morpholin-4-yl)pyrazin-2-yl)-N-(6-((1S,4S)-5-methyl-2,5-diazabicyclo[2.2.1]heptan-2-yl)pyridin-3-yl)pyrimidin-2-amine], for which the GI50 was in the range of 1000 to 10000 nM.
